# Results: US20120269802A1, “Treatment And Prognosis With Thalidomide In Multiple Myeloma Based on Karyotyping And Gene Expression Profiling” (Board Of Trustees Of The University Of Arkansas, priority 2009, published 2012)
# Tested on: multiple myeloma
# Test: Total Therapy 2 (TT2) randomized trial, control arm vs thalidomide arm: survival (Kaplan-Meier, Cox regression)
# Assay type: in vivo, patients
# Conditions: for Overall Survival HR (95% CI), randomization to thalidomide: all patients with GEP data
# Excerpt: To clarify the underlying mechanism, survival was examined in the 351 patients for whom gene expression profiling and cytogenetic data were available. […] Survival in the context of cytogenetic abnormalities involving chromosomal loci (CA1, CA13) was also examined. Statistical methods including Cox regression modeling were employed to define variables independently impacting outcomes.
# Of all 668 patients accrued to TT2, the 351 with gene expression profiling data available on CD138-purified plasma cells prior to initiation of therapy are the subjects of this report. […] The sole clinical outcome focus in this example is the overall survival measured from initiation of therapy.
# Kaplan-Meier methods were used to generate survival distribution graphs and comparisons were made using the log-rank test. Categorical comparisons were made using the chi-squared test. Running log-rank tests were used to determine optimal cut points for IL6R expression levels. Multivariate analyses applied stepwise selection and Cox proportional hazard regression modeling.
# In each of Tables 2-3: HR—Hazard Ratio, 95% Cl-95% Confidence Interval, P-value from Wald Chi-Square Test in Cox Regression NS2-Multivariate results not statistically significant at 0.05 level. All univariate p-values reported regardless of significance. Multivariate model uses stepwise selection with entry level 0.1 and variable remains if meets the 0.05 level. A multivariate p-value greater than 0.05 indicates variable forced into model with significant variables chosen using stepwise selection. Variables considered for the multivariate model were: Cytogenetic abnormalities, CA1, CA13, CA 1+13, Albumin <3.5 g/dL, B2M >5.5 mg/L, Creatinine ≧2 mg/dL, Hb <10 g/dL, LDH ≧190 U/L, GEP high-risk, GEP TP53 deletion, GEP IL6R expression ≧2900, GEP CKS1B Q4, Randomization to thalidomide, IL6R and CA 1+13 (interaction term).
smiles,measurement,setting,value
O=C1CCC(N2C(=O)c3ccccc3C2=O)C(=O)N1 (stereo not shown) [thalidomide],7-year survival estimate,"GEP-defined low-risk myeloma, subset displaying cytogenetic abnormalities, thalidomide arm vs 30% on control arm, p=0.004 (FIG. 1B)",67%
same,outcome vs control arm,"all patients with GEP-defined low-risk myeloma, p=0.13",only trending toward better outcomes
same,5-year survival estimate,"low-risk patients, CA1/13 subgroup (CA without both CA1 and CA13), addition of thalidomide vs 59% control, p<0.001 (FIG. 1C)",95%
same,survival outcomes on both treatment arms,"low-risk patients, subgroups with no cytogenetic abnormalities and with CA1+13 (FIG. 1C)",similar
same,"Overall Survival HR (95% CI), randomization to thalidomide","multivariate analysis, n/N 168/337, P 0.037","0.69 (0.49, 0.98)"
same,"OS from Enrollment HR (95% CI), CA with thalidomide randomization (interaction term)","multivariate analysis, patients with GEP-defined low-risk, n/N 33/304, P 0.003","0.27 (0.11, 0.64)"
same,"OS from Enrollment HR (95% CI), randomization to thalidomide","multivariate analysis, patients with GEP-defined low-risk, n/N 149/304, P 0.766","1.08 (0.65, 1.79)"
same,7-year survival,"patients exhibiting cytogenetic abnormalities (CA), randomized to thalidomide in TT2, vs 25% on control arm, p=0.015 (FIG. 1A)",54%
same,"Overall Survival HR (95% CI), randomization to thalidomide","univariate analysis, n/N 175/351, P 0.158","0.78 (0.56, 1.10)"
same,"OS from Enrollment HR (95% CI), randomization to thalidomide","univariate analysis, patients with GEP-defined low-risk, n/N 149/305, P 0.140","0.74 (0.50, 1.10)"
